From ChEMBL document CHEMBL1909046, “DrugMatrix in vitro pharmacology data”

Columns and labels:
[1] = target: T1, Cholecystokinin receptor type A (Homo sapiens, UniProt P32238); type: cell membranes, Membrane; conditions: 1321-n1; also: in other assays of this panel Not Active means under 50% inhibition at 10 µM
T1 sequence (P32238 whole entry): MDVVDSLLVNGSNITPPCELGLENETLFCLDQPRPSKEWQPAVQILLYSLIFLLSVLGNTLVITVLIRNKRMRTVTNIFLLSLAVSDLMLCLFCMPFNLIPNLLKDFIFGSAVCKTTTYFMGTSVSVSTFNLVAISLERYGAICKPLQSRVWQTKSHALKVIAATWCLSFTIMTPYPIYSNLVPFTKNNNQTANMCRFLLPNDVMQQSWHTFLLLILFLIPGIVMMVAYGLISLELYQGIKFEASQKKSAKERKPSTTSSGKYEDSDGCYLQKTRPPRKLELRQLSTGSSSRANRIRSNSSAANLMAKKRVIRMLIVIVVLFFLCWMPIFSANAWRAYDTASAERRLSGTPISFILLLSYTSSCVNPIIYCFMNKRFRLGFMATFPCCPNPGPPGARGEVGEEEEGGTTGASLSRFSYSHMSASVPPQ

[2] = target: Sodium-dependent dopamine transporter (Homo sapiens, UniProt Q01959); test: DRUGMATRIX: Dopamine Transporter radioligand binding (ligand: [125I] RTI-55); type: cell membranes, CHO-K1, Membrane; conditions: cho-k1; Not Active = under 50% inhibition at 10 µM
Chain of Sodium-dependent dopamine transporter (Q01959 whole entry): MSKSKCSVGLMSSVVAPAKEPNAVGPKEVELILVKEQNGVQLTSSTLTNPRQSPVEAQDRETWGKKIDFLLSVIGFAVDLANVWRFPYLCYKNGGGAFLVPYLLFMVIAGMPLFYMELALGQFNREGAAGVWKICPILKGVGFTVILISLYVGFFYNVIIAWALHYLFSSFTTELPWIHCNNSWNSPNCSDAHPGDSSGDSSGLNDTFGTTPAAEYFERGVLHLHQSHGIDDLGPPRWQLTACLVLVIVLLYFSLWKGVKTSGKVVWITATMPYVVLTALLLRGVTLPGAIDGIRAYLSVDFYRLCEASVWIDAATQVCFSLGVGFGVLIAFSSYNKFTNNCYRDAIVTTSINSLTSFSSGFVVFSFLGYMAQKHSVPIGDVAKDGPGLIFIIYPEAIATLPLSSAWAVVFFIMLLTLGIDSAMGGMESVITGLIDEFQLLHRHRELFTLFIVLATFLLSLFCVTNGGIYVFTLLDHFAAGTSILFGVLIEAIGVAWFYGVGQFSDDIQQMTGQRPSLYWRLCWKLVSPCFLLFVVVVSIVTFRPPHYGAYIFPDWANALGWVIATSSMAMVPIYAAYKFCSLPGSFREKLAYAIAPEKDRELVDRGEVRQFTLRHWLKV

[3] = target: Glycine receptor (Rattus norvegicus, UniProt P22771+P24524+P07727+P20781); type: cell membranes, Wistar, Spinal cord, Membrane; also: in other assays of this panel Not Active means under 50% inhibition at 10 µM
[4] = DRUGMATRIX: Interleukin IL-1 radioligand binding (ligand: [125I] interleukin 1beta); type: cell membranes, Membrane; conditions: nih3t3; Not Active = under 50% inhibition at 10 µM
[5] = DRUGMATRIX: Nicotinic Acetylcholine radioligand binding (ligand: [125I] Epibatidine); type: cell membranes, Membrane; conditions: imr-32; Not Active = under 50% inhibition at 10 µM
[6] = DRUGMATRIX: Phorbol Ester radioligand binding (ligand: [3H] PDBu); type: cell membranes, Mus musculus, ICR, Brain, Membrane; conditions: Not Active = under 50% inhibition at 10 µM
[7] = target: Tyrosine-protein kinase Fyn (Homo sapiens, UniProt P06241); test: biochemical; type: cell-based, Insect cells; conditions: insect cells;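 also: enzymatic inhibition of Fyn kinase activity measured with Poly(Glu:Tyr) as the phosphorylation substrate; in other assays of this panel Not Active means under 50% inhibition at 10 µM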
Chain of Tyrosine-protein kinase Fyn (P06241 whole entry): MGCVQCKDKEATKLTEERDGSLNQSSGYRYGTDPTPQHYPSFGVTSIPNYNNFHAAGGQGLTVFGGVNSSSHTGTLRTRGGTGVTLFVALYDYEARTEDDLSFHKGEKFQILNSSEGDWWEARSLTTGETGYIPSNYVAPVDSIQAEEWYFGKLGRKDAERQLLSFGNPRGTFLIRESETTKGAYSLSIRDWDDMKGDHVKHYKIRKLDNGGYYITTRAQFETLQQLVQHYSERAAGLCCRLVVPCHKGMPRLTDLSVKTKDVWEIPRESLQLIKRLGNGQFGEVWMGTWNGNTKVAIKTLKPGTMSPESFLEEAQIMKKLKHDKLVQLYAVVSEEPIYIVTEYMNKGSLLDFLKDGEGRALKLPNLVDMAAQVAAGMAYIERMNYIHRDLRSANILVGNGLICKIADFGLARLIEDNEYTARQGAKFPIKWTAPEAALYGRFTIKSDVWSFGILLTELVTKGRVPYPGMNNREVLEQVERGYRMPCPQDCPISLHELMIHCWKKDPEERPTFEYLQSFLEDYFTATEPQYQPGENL

[8] = target: Receptor tyrosine-protein kinase erbB-2 (Homo sapiens, UniProt P04626); type: cell-based; conditions: insect cells;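 also: inhibition of HER2 kinase enzyme activity, measured with Poly(Glu:Tyr) as the phosphorylation substrate; in other assays of this panel Not Active means under 50% inhibition at 10 µM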
Chain of Receptor tyrosine-protein kinase erbB-2 (P04626 whole entry): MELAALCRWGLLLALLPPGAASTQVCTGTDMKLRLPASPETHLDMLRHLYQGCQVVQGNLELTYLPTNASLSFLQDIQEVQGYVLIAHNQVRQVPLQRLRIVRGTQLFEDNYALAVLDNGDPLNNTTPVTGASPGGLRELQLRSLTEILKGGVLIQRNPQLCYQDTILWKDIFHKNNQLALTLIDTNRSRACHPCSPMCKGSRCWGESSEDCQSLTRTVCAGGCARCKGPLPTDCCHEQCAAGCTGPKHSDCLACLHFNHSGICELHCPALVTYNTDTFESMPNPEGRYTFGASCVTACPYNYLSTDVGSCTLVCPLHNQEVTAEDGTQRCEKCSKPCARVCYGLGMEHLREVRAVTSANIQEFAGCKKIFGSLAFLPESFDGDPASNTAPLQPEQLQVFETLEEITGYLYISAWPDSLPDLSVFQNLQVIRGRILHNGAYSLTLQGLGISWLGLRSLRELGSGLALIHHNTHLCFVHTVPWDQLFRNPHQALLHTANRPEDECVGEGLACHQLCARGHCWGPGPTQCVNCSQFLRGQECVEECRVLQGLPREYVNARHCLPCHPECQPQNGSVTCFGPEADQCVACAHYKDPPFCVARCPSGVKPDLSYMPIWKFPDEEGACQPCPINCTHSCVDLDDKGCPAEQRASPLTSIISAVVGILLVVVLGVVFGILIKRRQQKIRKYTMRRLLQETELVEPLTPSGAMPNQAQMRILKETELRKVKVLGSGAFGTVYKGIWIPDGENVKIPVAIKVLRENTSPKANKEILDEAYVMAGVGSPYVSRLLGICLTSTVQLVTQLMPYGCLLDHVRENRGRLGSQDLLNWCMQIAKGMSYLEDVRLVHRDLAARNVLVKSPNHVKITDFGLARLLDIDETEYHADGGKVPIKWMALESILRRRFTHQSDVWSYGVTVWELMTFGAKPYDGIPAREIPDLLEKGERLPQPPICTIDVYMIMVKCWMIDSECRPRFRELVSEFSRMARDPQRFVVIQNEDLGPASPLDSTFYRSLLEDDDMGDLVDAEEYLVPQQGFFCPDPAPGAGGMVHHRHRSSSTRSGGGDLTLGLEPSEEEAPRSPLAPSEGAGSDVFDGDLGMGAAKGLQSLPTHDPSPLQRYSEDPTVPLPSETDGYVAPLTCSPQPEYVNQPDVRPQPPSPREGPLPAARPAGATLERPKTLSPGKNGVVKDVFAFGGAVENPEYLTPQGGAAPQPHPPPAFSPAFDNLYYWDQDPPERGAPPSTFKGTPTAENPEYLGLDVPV

CC1=C(/C=C/C(C)=C/C=C/C(C)=C/C(=O)O)C(C)(C)CCC1 [TRETINOIN]
Not Active: IC50 [1] | IC50 [2] | IC50 [3] | IC50 [4] | Ki [4] | IC50 [5] | Ki [5] | IC50 [6] | Ki [6] | IC50 [7] | IC50 [8]

Cc1ccc(S(=O)(=O)NC(=O)NN2CCCCCC2)cc1 [TOLAZAMIDE]
Not Active: IC50 [1] | IC50 [2] | IC50 [3] | IC50 [4] | Ki [4] | IC50 [5] | Ki [5] | IC50 [6] | Ki [6] | IC50 [7] | IC50 [8]

Cc1cccc(C)c1NC(=O)C(C)N (stereo unspecified) [TOCAINIDE]
Not Active: IC50 [1] | IC50 [2] | IC50 [3] | IC50 [4] | Ki [4] | IC50 [5] | Ki [5] | IC50 [6] | Ki [6] | IC50 [7] | IC50 [8]

Cc1cc2c(s1)Nc1ccccc1N=C2N1CCN(C)CC1 [OLANZAPINE]
Not Active: IC50 [1] | IC50 [2] | IC50 [3] | IC50 [7] | IC50 [8]

COC(=O)Nc1nc2ccc(C(=O)c3ccccc3)cc2[nH]1 [MEBENDAZOLE]
Not Active: IC50 [1] | IC50 [2] | IC50 [3] | IC50 [4] | Ki [4] | IC50 [5] | Ki [5] | IC50 [6] | Ki [6] | IC50 [7] | IC50 [8]

O=C1CC[C@@]2(O)[C@H]3Cc4ccc(O)c5c4[C@@]2(CCN3CC2CC2)[C@H]1O5 [NALTREXONE]
Not Active: IC50 [1] | IC50 [2] | IC50 [3] | IC50 [4] | Ki [4] | IC50 [5] | Ki [5] | IC50 [6] | Ki [6] | IC50 [7] | IC50 [8]

CCN(CC)CCNC(=O)c1cc(Cl)c(N)cc1OC [METOCLOPRAMIDE]
Not Active: IC50 [1] | IC50 [2] | IC50 [3] | IC50 [4] | Ki [4] | IC50 [5] | Ki [5] | IC50 [6] | Ki [6] | IC50 [7] | IC50 [8]

CCOc1cc(N)c(Cl)cc1C(=O)NCC1CN(Cc2ccc(F)cc2)CCO1 (stereo unspecified) [MOSAPRIDE]
Not Active: IC50 [1] | IC50 [2] | IC50 [3] | IC50 [4] | Ki [4] | IC50 [5] | Ki [5] | IC50 [6] | Ki [6] | IC50 [7] | IC50 [8]

Cc1ccc(Cl)c(Nc2ccccc2C(=O)O)c1Cl [MECLOFENAMIC ACID]
Not Active: IC50 [1] | IC50 [2] | IC50 [3] | IC50 [4] | Ki [4] | IC50 [5] | Ki [5] | IC50 [6] | Ki [6] | IC50 [7] | IC50 [8]

CN1C[C@H](CNC(=O)OCc2ccccc2)C[C@@H]2c3cccc4c3c(cn4C)C[C@H]21 [METERGOLINE]
Not Active: IC50 [1] | IC50 [3] | IC50 [4] | Ki [4] | IC50 [5] | Ki [5] | IC50 [6] | Ki [6] | IC50 [7] | IC50 [8]

O=[As][O-].[Na+] [SODIUM ARSENITE]
Not Active: IC50 [1] | IC50 [2] | IC50 [3] | IC50 [4] | Ki [4] | IC50 [5] | Ki [5] | IC50 [6] | Ki [6] | IC50 [7] | IC50 [8]

CN(C)CCC=C1c2ccccc2COc2ccccc21 [DOXEPIN]
Not Active: IC50 [3] | IC50 [7] | IC50 [8]

CNCCCC12CCC(c3ccccc31)c1ccccc12 [MAPROTILINE]
Not Active: IC50 [1] | IC50 [3] | IC50 [7] | IC50 [8]
